Results as given in the NIST ThermoML archive (doi:10.1021/acs.jced.8b00132).
Where “and” joins values, the source holds several entries; their conditions need not be identical. Identical values can stand only once.

O=C(C(F)(F)C(F)(F)F)C(F)(C(F)(F)F)C(F)(F)F [dodecafluoro-2-methylpentan-3-one]
Conditions	thermal conductivity
389.64 K, 670 kPa, Liquid, transient hot wire	0.04285 W/m/K
389.64 K, 9501 kPa, Liquid, transient hot wire	0.04974 W/m/K
389.64 K, 9504 kPa, Liquid, transient hot wire	0.04979 W/m/K
389.65 K, 670 kPa, Liquid, transient hot wire	0.04282 W/m/K
389.65 K, 53766 kPa, Liquid, transient hot wire	0.06802 W/m/K
389.66 K, 53751 kPa, Liquid, transient hot wire	0.06802 W/m/K
389.7 K, 21438 kPa, Liquid, transient hot wire	0.05608 W/m/K
389.7 K, 21439 kPa, Liquid, transient hot wire	0.05607 W/m/K
389.72 K, 40368 kPa, Liquid, transient hot wire	0.0636 W/m/K
389.72 K, 67805 kPa, Liquid, transient hot wire	0.07218 W/m/K
389.72 K, 67826 kPa, Liquid, transient hot wire	0.07217 W/m/K
389.73 K, 40356 kPa, Liquid, transient hot wire	0.06359 W/m/K
389.74 K, 5608 kPa, Liquid, transient hot wire	0.04712 W/m/K
389.75 K, 14721 kPa, Liquid, transient hot wire	0.0528 W/m/K
389.76 K, 2811 kPa, Liquid, transient hot wire	0.04489 W/m/K
389.76 K, 14719 kPa, Liquid, transient hot wire	0.05276 W/m/K
389.77 K, 2810 kPa, Liquid, transient hot wire	0.04491 W/m/K
389.79 K, 29871 kPa, Liquid, transient hot wire	0.0597 W/m/K
389.8 K, 29864 kPa, Liquid, transient hot wire	0.05959 W/m/K
389.8 K, 53730 kPa, Liquid, transient hot wire	0.06799 W/m/K
389.81 K, 53715 kPa, Liquid, transient hot wire	0.06798 W/m/K
389.83 K, 9502 kPa, Liquid, transient hot wire	0.0497 W/m/K
389.83 K, 9503 kPa, Liquid, transient hot wire	0.04976 W/m/K
389.84 K, 669 kPa, Liquid, transient hot wire	0.04282 W/m/K and 0.04287 W/m/K
389.85 K, 670 kPa, Liquid, transient hot wire	0.0428 W/m/K and 0.04285 W/m/K
389.87 K, 21435 kPa, Liquid, transient hot wire	0.05603 W/m/K
389.87 K, 67783 kPa, Liquid, transient hot wire	0.07218 W/m/K
389.88 K, 40337 kPa, Liquid, transient hot wire	0.06356 W/m/K
389.88 K, 40347 kPa, Liquid, transient hot wire	0.06347 W/m/K
389.88 K, 67759 kPa, Liquid, transient hot wire	0.07209 W/m/K
389.94 K, 5610 kPa, Liquid, transient hot wire	0.04715 W/m/K
389.95 K, 5610 kPa, Liquid, transient hot wire	0.04716 W/m/K
389.95 K, 14717 kPa, Liquid, transient hot wire	0.05274 W/m/K
389.96 K, 2811 kPa, Liquid, transient hot wire	0.04493 W/m/K
389.96 K, 14717 kPa, Liquid, transient hot wire	0.05275 W/m/K
389.97 K, 2812 kPa, Liquid, transient hot wire	0.04492 W/m/K
389.97 K, 29861 kPa, Liquid, transient hot wire	0.05954 W/m/K
389.97 K, 29862 kPa, Liquid, transient hot wire	0.05955 W/m/K
389.97 K, 53688 kPa, Liquid, transient hot wire	0.06792 W/m/K
389.97 K, 53707 kPa, Liquid, transient hot wire	0.06846 W/m/K
390.03 K, 9500 kPa, Liquid, transient hot wire	0.04976 W/m/K
390.03 K, 9503 kPa, Liquid, transient hot wire	0.04976 W/m/K
390.06 K, 669 kPa, Liquid, transient hot wire	0.0428 W/m/K
390.06 K, 670 kPa, Liquid, transient hot wire	0.04284 W/m/K and 0.04279 W/m/K
390.06 K, 21434 kPa, Liquid, transient hot wire	0.05598 W/m/K
390.06 K, 21436 kPa, Liquid, transient hot wire	0.056 W/m/K
390.06 K, 40331 kPa, Liquid, transient hot wire	0.0635 W/m/K
390.06 K, 40336 kPa, Liquid, transient hot wire	0.06349 W/m/K
390.15 K, 5609 kPa, Liquid, transient hot wire	0.04709 W/m/K and 0.04706 W/m/K
390.15 K, 14714 kPa, Liquid, transient hot wire	0.05264 W/m/K
390.15 K, 29850 kPa, Liquid, transient hot wire	0.0595 W/m/K
390.16 K, 14712 kPa, Liquid, transient hot wire	0.05268 W/m/K
390.16 K, 29857 kPa, Liquid, transient hot wire	0.0595 W/m/K
390.18 K, 2812 kPa, Liquid, transient hot wire	0.04486 W/m/K
390.19 K, 2812 kPa, Liquid, transient hot wire	0.04487 W/m/K
390.24 K, 9499 kPa, Liquid, transient hot wire	0.04963 W/m/K
390.25 K, 9501 kPa, Liquid, transient hot wire	0.04969 W/m/K
390.25 K, 21437 kPa, Liquid, transient hot wire	0.05589 W/m/K
390.26 K, 21435 kPa, Liquid, transient hot wire	0.05593 W/m/K
390.28 K, 669 kPa, Liquid, transient hot wire	0.04276 W/m/K and 0.04278 W/m/K
390.29 K, 670 kPa, Liquid, transient hot wire	0.04279 W/m/K and 0.04277 W/m/K
390.36 K, 14712 kPa, Liquid, transient hot wire	0.05264 W/m/K
390.36 K, 14714 kPa, Liquid, transient hot wire	0.05262 W/m/K
390.37 K, 5610 kPa, Liquid, transient hot wire	0.04711 W/m/K
390.37 K, 5611 kPa, Liquid, transient hot wire	0.04706 W/m/K
390.42 K, 2814 kPa, Liquid, transient hot wire	0.04483 W/m/K
390.42 K, 2815 kPa, Liquid, transient hot wire	0.04488 W/m/K
390.46 K, 9497 kPa, Liquid, transient hot wire	0.04961 W/m/K
390.46 K, 9500 kPa, Liquid, transient hot wire	0.04968 W/m/K
390.52 K, 669 kPa, Liquid, transient hot wire	0.04282 W/m/K and 0.04283 W/m/K
390.53 K, 670 kPa, Liquid, transient hot wire	0.04282 W/m/K and 0.04286 W/m/K
390.57 K, 5608 kPa, Liquid, transient hot wire	0.04706 W/m/K
390.6 K, 5609 kPa, Liquid, transient hot wire	0.04709 W/m/K
390.66 K, 2816 kPa, Liquid, transient hot wire	0.04487 W/m/K
390.66 K, 2817 kPa, Liquid, transient hot wire	0.04488 W/m/K
390.76 K, 669 kPa, Liquid, transient hot wire	0.04287 W/m/K
390.78 K, 669 kPa, Liquid, transient hot wire	0.04304 W/m/K
402.21 K, 448 kPa, Gas, hot wire	0.02088 W/m/K
402.23 K, 447 kPa, Gas, hot wire	0.02061 W/m/K
402.27 K, 307 kPa, Gas, hot wire	0.02002 W/m/K and 0.01983 W/m/K
402.31 K, 156 kPa, Gas, hot wire	0.01939 W/m/K
402.31 K, 157 kPa, Gas, hot wire	0.01939 W/m/K
402.33 K, 446 kPa, Gas, hot wire	0.02071 W/m/K
402.34 K, 445 kPa, Gas, hot wire	0.02068 W/m/K
